Data reported in ChEMBL document CHEMBL5126592, “Design, synthesis and activity against drug-resistant bacteria evaluation of C-20, C-23 modified 5-O-mycaminosyltylonolide derivatives” (Eur J Med Chem, 2022).
In brackets after ≈: the same amount, converted by molar mass.

What was measured:
Format in all cases: functional
Details in all cases: time 16-20 hrs
[1] = test system: Klebsiella pneumoniae; assay: Antibacterial activity against Klebsiella pneumoniae ATCC 13883 incubated for 16 to 20 hrs by broth microdilution method
[2] = test system: Cronobacter sakazakii; assay: Antibacterial activity against Cronobacter sakazakii ATCC 29544 incubated for 16 to 20 hrs by broth microdilution method
[3] = test system: Escherichia coli; assay: Antibacterial activity against Escherichia coli ATCC 25922 incubated for 16 to 20 hrs by broth microdilution method
[4] = test system: Staphylococcus aureus; assay: Antibacterial activity against Staphylococcus aureus ATCC 25923 incubated for 16 to 20 hrs by broth microdilution method

MIC [1] [µg/mL]	MIC [2] [µg/mL]	MIC [3] [µg/mL]	MIC [4] [µg/mL]	SMILES
16 (≈ 17.6 µM)	16 (≈ 17.6 µM)	16 (≈ 17.6 µM)	0.5 (≈ 0.549 µM)	CC[C@H]1OC(=O)C[C@@H](O)[C@H](C)[C@@H](O[C@@H]2O[C@H](C)[C@@H](O)[C@H](N(C)C)[C@H]2O)[C@@H](CCN(Cc2ccc(C)cc2)Cc2cn(-c3cnc4ccccc4c3)nn2)C[C@@H](C)C(=O)/C=C/C(C)=C/[C@@H]1CO
32 (≈ 30.9 µM)	32 (≈ 30.9 µM)	8 (≈ 7.73 µM)	2 (≈ 1.93 µM)	CC[C@H]1OC(=O)C[C@@H](O)[C@H](C)[C@@H](O[C@@H]2O[C@H](C)[C@@H](O)[C@H](N(C)C)[C@H]2O)[C@@H](CCN(Cc2ccc(N(C)C)cc2)Cc2cn(-c3cnc4ccccc4c3)nn2)C[C@@H](C)C(=O)/C=C/C(C)=C/[C@@H]1CN1CC(C)CC(C)C1 (stereo partly drawn)
32 (≈ 35.6 µM)	32 (≈ 35.6 µM)	32 (≈ 35.6 µM)	0.5 (≈ 0.556 µM)	CC[C@H]1OC(=O)C[C@@H](O)[C@H](C)[C@@H](O[C@@H]2O[C@H](C)[C@@H](O)[C@H](N(C)C)[C@H]2O)[C@@H](CCN(Cc2cncnc2)Cc2cn(-c3cnc4ccccc4c3)nn2)C[C@@H](C)C(=O)/C=C/C(C)=C/[C@@H]1CO
16 (≈ 16.3 µM)	16 (≈ 16.3 µM)	16 (≈ 16.3 µM)	2 (≈ 2.04 µM)	CC[C@H]1OC(=O)C[C@@H](O)[C@H](C)[C@@H](O[C@@H]2O[C@H](C)[C@@H](O)[C@H](N(C)C)[C@H]2O)[C@@H](CCN(Cc2ccccc2)Cc2cn(-c3cnc4ccccc4c3)nn2)C[C@@H](C)C(=O)/C=C/C(C)=C/[C@@H]1CN1CCC(O)CC1
8 (≈ 8.14 µM)	32 (≈ 32.6 µM)	4 (≈ 4.07 µM)	1 (≈ 1.02 µM)	CC[C@H]1OC(=O)C[C@@H](O)[C@H](C)[C@@H](O[C@@H]2O[C@H](C)[C@@H](O)[C@H](N(C)C)[C@H]2O)[C@@H](CCN(Cc2cn(-c3cnc4ccccc4c3)nn2)Cc2ccco2)C[C@@H](C)C(=O)/C=C/C(C)=C/[C@@H]1CN1CCCCCCC1
32 (≈ 30.9 µM)	32 (≈ 30.9 µM)	16 (≈ 15.4 µM)	2 (≈ 1.93 µM)	CC[C@H]1OC(=O)C[C@@H](O)[C@H](C)[C@@H](O[C@@H]2O[C@H](C)[C@@H](O)[C@H](N(C)C)[C@H]2O)[C@@H](CCN(Cc2ccc(OC)cc2)Cc2cn(-c3cnc4ccccc4c3)nn2)C[C@@H](C)C(=O)/C=C/C(C)=C/[C@@H]1CI
8 (≈ 8.06 µM)	16 (≈ 16.1 µM)	8 (≈ 8.06 µM)	1 (≈ 1.01 µM)	CC[C@H]1OC(=O)C[C@@H](O)[C@H](C)[C@@H](O[C@@H]2O[C@H](C)[C@@H](O)[C@H](N(C)C)[C@H]2O)[C@@H](CCN(Cc2ccccc2)Cc2cn(-c3cnc4ccccc4c3)nn2)C[C@@H](C)C(=O)/C=C/C(C)=C/[C@@H]1CN1CCCCCCC1
16 (≈ 17.7 µM)	32 (≈ 35.4 µM)	16 (≈ 17.7 µM)	8 (≈ 8.85 µM)	CC[C@H]1OC(=O)C[C@@H](O)[C@H](C)[C@@H](O[C@@H]2O[C@H](C)[C@@H](O)[C@H](N(C)C)[C@H]2O)[C@@H](CCN(C)Cc2cn(-c3cnc4ccccc4c3)nn2)C[C@@H](C)C(=O)/C=C/C(C)=C/[C@@H]1CN1CCC(O)CC1
16 (≈ 17.3 µM)	16 (≈ 17.3 µM)	32 (≈ 34.6 µM)	0.5 (≈ 0.54 µM)	CCc1ccc(CN(CC[C@H]2C[C@@H](C)C(=O)/C=C/C(C)=C/[C@H](CO)[C@@H](CC)OC(=O)C[C@@H](O)[C@H](C)[C@H]2O[C@@H]2O[C@H](C)[C@@H](O)[C@H](N(C)C)[C@H]2O)Cc2cn(-c3cnc4ccccc4c3)nn2)cc1
4 (≈ 3.97 µM)	32 (≈ 31.7 µM)	8 (≈ 7.93 µM)	0.5 (≈ 0.496 µM)	CC[C@H]1OC(=O)C[C@@H](O)[C@H](C)[C@@H](O[C@@H]2O[C@H](C)[C@@H](O)[C@H](N(C)C)[C@H]2O)[C@@H](CCN(Cc2ccc(OC)cc2)Cc2cn(-c3cnc4ccccc4c3)nn2)C[C@@H](C)C(=O)/C=C/C(C)=C/[C@@H]1CN1CCCCCC1
16 (≈ 15.5 µM)	16 (≈ 15.5 µM)	8 (≈ 7.75 µM)	1 (≈ 0.969 µM)	CC[C@H]1OC(=O)C[C@@H](O)[C@H](C)[C@@H](O[C@@H]2O[C@H](C)[C@@H](O)[C@H](N(C)C)[C@H]2O)[C@@H](CCN(Cc2ccc(C(F)(F)F)cc2)Cc2cn(-c3cnc4ccccc4c3)nn2)C[C@@H](C)C(=O)/C=C/C(C)=C/[C@@H]1CN1CCCCC1
8 (≈ 9.13 µM)	16 (≈ 18.3 µM)	8 (≈ 9.13 µM)	0.5 (≈ 0.571 µM)	CCCN(C)C[C@H]1/C=C(C)/C=C/C(=O)[C@H](C)C[C@H](CCN(C)Cc2cn(-c3cnc4ccccc4c3)nn2)[C@H](O[C@@H]2O[C@H](C)[C@@H](O)[C@H](N(C)C)[C@H]2O)[C@@H](C)[C@H](O)CC(=O)O[C@@H]1CC
16 (≈ 16.1 µM)	16 (≈ 16.1 µM)	16 (≈ 16.1 µM)	4 (≈ 4.03 µM)	CC[C@H]1OC(=O)C[C@@H](O)[C@H](C)[C@@H](O[C@@H]2O[C@H](C)[C@@H](O)[C@H](N(C)C)[C@H]2O)[C@@H](CCN(Cc2ccccc2)Cc2cn(-c3cnc4ccccc4c3)nn2)C[C@@H](C)C(=O)/C=C/C(C)=C/[C@@H]1CN1CC(C)CC(C)C1 (stereo partly drawn)
16 (≈ 17.7 µM)	32 (≈ 35.4 µM)	16 (≈ 17.7 µM)	0.25 (≈ 0.277 µM)	CC[C@H]1OC(=O)C[C@@H](O)[C@H](C)[C@@H](O[C@@H]2O[C@H](C)[C@@H](O)[C@H](N(C)C)[C@H]2O)[C@@H](CCN(Cc2ccsc2)Cc2cn(-c3cnc4ccccc4c3)nn2)C[C@@H](C)C(=O)/C=C/C(C)=C/[C@@H]1CO
8 (≈ 7.54 µM)	32 (≈ 30.2 µM)	4 (≈ 3.77 µM)	1 (≈ 0.943 µM)	CC[C@H]1OC(=O)C[C@@H](O)[C@H](C)[C@@H](O[C@@H]2O[C@H](C)[C@@H](O)[C@H](N(C)C)[C@H]2O)[C@@H](CCN(Cc2ccc(C(F)(F)F)cc2)Cc2cn(-c3cnc4ccccc4c3)nn2)C[C@@H](C)C(=O)/C=C/C(C)=C/[C@@H]1CN1CCCCCCC1
32 (≈ 34.4 µM)	32 (≈ 34.4 µM)	16 (≈ 17.2 µM)	2 (≈ 2.15 µM)	CC[C@H]1OC(=O)C[C@@H](O)[C@H](C)[C@@H](O[C@@H]2O[C@H](C)[C@@H](O)[C@H](N(C)C)[C@H]2O)[C@@H](CCN(C)Cc2cn(-c3cnc4ccccc4c3)nn2)C[C@@H](C)C(=O)/C=C/C(C)=C/[C@@H]1CI
16 (≈ 15.7 µM)	16 (≈ 15.7 µM)	4 (≈ 3.91 µM)	1 (≈ 0.978 µM)	CC[C@H]1OC(=O)C[C@@H](O)[C@H](C)[C@@H](O[C@@H]2O[C@H](C)[C@@H](O)[C@H](N(C)C)[C@H]2O)[C@@H](CCN(Cc2ccc(OC)cc2)Cc2cn(-c3cnc4ccccc4c3)nn2)C[C@@H](C)C(=O)/C=C/C(C)=C/[C@@H]1CN1CCCCCCC1
32 (≈ 35.4 µM)	32 (≈ 35.4 µM)	32 (≈ 35.4 µM)	0.5 (≈ 0.553 µM)	CC[C@H]1OC(=O)C[C@@H](O)[C@H](C)[C@@H](O[C@@H]2O[C@H](C)[C@@H](O)[C@H](N(C)C)[C@H]2O)[C@@H](CCN(Cc2cn(-c3cnc4ccccc4c3)nn2)Cc2cncs2)C[C@@H](C)C(=O)/C=C/C(C)=C/[C@@H]1CO
16 (≈ 17 µM)	8 (≈ 8.49 µM)	4 (≈ 4.25 µM)	1 (≈ 1.06 µM)	CC[C@H]1OC(=O)C[C@@H](O)[C@H](C)[C@@H](O[C@@H]2O[C@H](C)[C@@H](O)[C@H](N(C)C)[C@H]2O)[C@@H](CCN(Cc2cn(-c3cnc4ccccc4c3)nn2)Cc2ccco2)C[C@@H](C)C(=O)/C=C/C(C)=C/[C@@H]1CN(CC)CC
8 (≈ 7.92 µM)	32 (≈ 31.7 µM)	8 (≈ 7.92 µM)	2 (≈ 1.98 µM)	CC[C@H]1OC(=O)C[C@@H](O)[C@H](C)[C@@H](O[C@@H]2O[C@H](C)[C@@H](O)[C@H](N(C)C)[C@H]2O)[C@@H](CCN(Cc2ccc(OC)cc2)Cc2cn(-c3cnc4ccccc4c3)nn2)C[C@@H](C)C(=O)/C=C/C(C)=C/[C@@H]1CN1CCC(O)CC1
16 (≈ 17.2 µM)	16 (≈ 17.2 µM)	8 (≈ 8.58 µM)	0.5 (≈ 0.536 µM)	CCCCN(CCCC)C[C@H]1/C=C(C)/C=C/C(=O)[C@H](C)C[C@H](CCN(C)Cc2cn(-c3cnc4ccccc4c3)nn2)[C@H](O[C@@H]2O[C@H](C)[C@@H](O)[C@H](N(C)C)[C@H]2O)[C@@H](C)[C@H](O)CC(=O)O[C@@H]1CC
16 (≈ 17.3 µM)	32 (≈ 34.5 µM)	8 (≈ 8.63 µM)	0.25 (≈ 0.27 µM)	CC[C@H]1OC(=O)C[C@@H](O)[C@H](C)[C@@H](O[C@@H]2O[C@H](C)[C@@H](O)[C@H](N(C)C)[C@H]2O)[C@@H](CCN(Cc2ccc(OC)cc2)Cc2cn(-c3cnc4ccccc4c3)nn2)C[C@@H](C)C(=O)/C=C/C(C)=C/[C@@H]1CO
8 (≈ 8.73 µM)	16 (≈ 17.5 µM)	8 (≈ 8.73 µM)	2 (≈ 2.18 µM)	CC[C@H]1OC(=O)C[C@@H](O)[C@H](C)[C@@H](O[C@@H]2O[C@H](C)[C@@H](O)[C@H](N(C)C)[C@H]2O)[C@@H](CCN(C)Cc2cn(-c3cnc4ccccc4c3)nn2)C[C@@H](C)C(=O)/C=C/C(C)=C/[C@@H]1CN1CC(C)CC(C)C1 (stereo partly drawn)
32 (≈ 33.5 µM)	32 (≈ 33.5 µM)	8 (≈ 8.38 µM)	0.25 (≈ 0.262 µM)	CC[C@H]1OC(=O)C[C@@H](O)[C@H](C)[C@@H](O[C@@H]2O[C@H](C)[C@@H](O)[C@H](N(C)C)[C@H]2O)[C@@H](CCN(Cc2cn(-c3cnc4ccccc4c3)nn2)Cc2ccco2)C[C@@H](C)C(=O)/C=C/C(C)=C/[C@@H]1CN1CCCCC1
16 (≈ 14.7 µM)	16 (≈ 14.7 µM)	8 (≈ 7.36 µM)	1 (≈ 0.92 µM)	CCCCN(CCCC)C[C@H]1/C=C(C)/C=C/C(=O)[C@H](C)C[C@H](CCN(Cc2ccc(Br)cc2)Cc2cn(-c3cnc4ccccc4c3)nn2)[C@H](O[C@@H]2O[C@H](C)[C@@H](O)[C@H](N(C)C)[C@H]2O)[C@@H](C)[C@H](O)CC(=O)O[C@@H]1CC
32 (≈ 32.8 µM)	32 (≈ 32.8 µM)	8 (≈ 8.2 µM)	0.125 (≈ 0.128 µM)	CC[C@H]1OC(=O)C[C@@H](O)[C@H](C)[C@@H](O[C@@H]2O[C@H](C)[C@@H](O)[C@H](N(C)C)[C@H]2O)[C@@H](CCN(Cc2ccc(Br)cc2)Cc2cn(-c3cnc4ccccc4c3)nn2)C[C@@H](C)C(=O)/C=C/C(C)=C/[C@@H]1CO
32 (≈ 35.6 µM)	32 (≈ 35.6 µM)	32 (≈ 35.6 µM)	0.125 (≈ 0.139 µM)	CC[C@H]1OC(=O)C[C@@H](O)[C@H](C)[C@@H](O[C@@H]2O[C@H](C)[C@@H](O)[C@H](N(C)C)[C@H]2O)[C@@H](CCN(Cc2ccncc2)Cc2cn(-c3cnc4ccccc4c3)nn2)C[C@@H](C)C(=O)/C=C/C(C)=C/[C@@H]1CO
